Data published in ChEMBL document CHEMBL5338788, “Discovery of a New-Generation S-Adenosylmethionine-Noncompetitive Covalent Inhibitor Targeting the Lysine Methyltransferase Enhancer of Zeste Homologue 2” (J Med Chem, 2023).
Values belong to the compound of their own block, whether it stands above or below them. Calls of active or inactive are those of the source. The calls are words filed in the database; no cut-off is given here.

Experiments:
[1] = Antiproliferative activity against human WILL-1 cells expressing wild-type EZH2 assessed as inhibition of cell proliferation incubated for 6 days by CCK8 assay; assay type: functional, cell-based; details: WILL-1, 144 h
HT = experiment: Antiproliferative activity against human HT cells expressing wild-type EZH2 assessed as inhibition of cell proliferation incubated for 6 days by CCK8 assay; assay type: functional, cell-based; details: 144 h
KARPAS-422 [2] = experiment: Antiproliferative activity against human KARPAS-422 cells expressing EZH2 mutant assessed as inhibition of cell proliferation incubated for 6 days by CCK8 assay; assay type: functional, cell-based; details: time 6.0 day
[3] = Apparent permeability in human Caco-2 cells at 20 uM measured for 35 to 95 mins by LC-MS/MS analysis; assay type: ADME, cell-based; details: time 35-95 min
Pfeiffer [4] = experiment: Antiproliferative activity against human Pfeiffer cells expressing EZH2 mutant assessed as inhibition of cell proliferation incubated for 6 days by CCK8 assay; assay type: functional, cell-based; details: time 6.0 day
Karpas-1106P = experiment: Antiproliferative activity against human KARPAS-1106P cells expressing wild-type EZH2 assessed as inhibition of cell proliferation incubated for 6 days by CCK8 assay; assay type: functional, cell-based
Pfeiffer [5] = experiment: Antiproliferative activity against human Pfeiffer cells expressing EZH2 […] mutant assessed as inhibition of cell proliferation incubated for 6 days by CCK8 assay; assay type: functional, cell-based; details: 144 h
SU-DHL-2 = experiment: Antiproliferative activity against human SUDHL2 cells expressing EZH2 mutant assessed as inhibition of cell proliferation incubated for 6 days by CCK8 assay; assay type: functional, cell-based; details: SU-DHL-2, 144 h
[6] = Metabolic stability in human liver microsomes assessed as half life preincubated for 10 mins followed by NADPH addition measured upto 60 mins by LC-MS/MS analysis; assay type: ADME, Microsome; details: time < 70 min
OPM-2 = experiment: Antiproliferative activity against human OPM-2 cells expressing wild-type EZH2 assessed as inhibition of cell proliferation incubated for 6 days by CCK8 assay; assay type: functional, cell-based; details: OPM-2, 144 h
DB = experiment: Antiproliferative activity against human DB cells expressing wild-type EZH2 assessed as inhibition of cell proliferation incubated for 6 days by CCK8 assay; assay type: functional, cell-based; details: 144 h
U2932 = experiment: Antiproliferative activity against human U2932 cells expressing wild-type EZH2 assessed as inhibition of cell proliferation incubated for 6 days by CCK8 assay; assay type: functional, cell-based; details: U2932, 144 h
Pfeiffer [7] = experiment: Downregulation of H3K27me3 level in human Pfeiffer cells at 1 uM incubated for 96 hrs followed by compound washout measured after 48 hrs by Western blot analysis; assay type: functional, cell-based; details: time 144.0 hrs
WSUDLCL2 = experiment: Antiproliferative activity against human WSUDLCL2 cells expressing wild-type EZH2 assessed as inhibition of cell proliferation incubated for 6 days by CCK8 assay; assay type: functional, cell-based; details: WSUDLCL2, 144 h
SU-DHL10 = experiment: Antiproliferative activity against human SU-DHL-10 cells expressing EZH2 mutant assessed as inhibition of cell proliferation incubated for 6 days by CCK8 assay; assay type: functional, cell-based; details: time 6.0 day
RL = experiment: Antiproliferative activity against human RL cells expressing EZH2 mutant assessed as inhibition of cell proliferation incubated for 6 days by CCK8 assay; assay type: functional, cell-based
KARPAS-422 [8] = experiment: Antiproliferative activity against human KARPAS-422 cells expressing EZH2 Y641N mutant assessed as inhibition of cell proliferation incubated for 6 days by CCK8 assay; assay type: functional, cell-based; details: KARPAS-422, 144 h
[9] = target: Histone-lysine N-methyltransferase EZH2 (Homo sapiens, UniProt Q15910, Y641F); experiment: Inhibition of N-terminal FLAG-tagged recombinant full-length human EZH2 Y641F mutant in PRC2 complex expressed in baculovirus infected Sf9 cells using H3K27me0 biotin/SAM as substrate preincubated for 10 mins followed by substrate addition measured after 4 hrs by HTRF assay; assay type: cell-based
Sequence of Histone-lysine N-methyltransferase EZH2 (Q15910 whole entry Y641F): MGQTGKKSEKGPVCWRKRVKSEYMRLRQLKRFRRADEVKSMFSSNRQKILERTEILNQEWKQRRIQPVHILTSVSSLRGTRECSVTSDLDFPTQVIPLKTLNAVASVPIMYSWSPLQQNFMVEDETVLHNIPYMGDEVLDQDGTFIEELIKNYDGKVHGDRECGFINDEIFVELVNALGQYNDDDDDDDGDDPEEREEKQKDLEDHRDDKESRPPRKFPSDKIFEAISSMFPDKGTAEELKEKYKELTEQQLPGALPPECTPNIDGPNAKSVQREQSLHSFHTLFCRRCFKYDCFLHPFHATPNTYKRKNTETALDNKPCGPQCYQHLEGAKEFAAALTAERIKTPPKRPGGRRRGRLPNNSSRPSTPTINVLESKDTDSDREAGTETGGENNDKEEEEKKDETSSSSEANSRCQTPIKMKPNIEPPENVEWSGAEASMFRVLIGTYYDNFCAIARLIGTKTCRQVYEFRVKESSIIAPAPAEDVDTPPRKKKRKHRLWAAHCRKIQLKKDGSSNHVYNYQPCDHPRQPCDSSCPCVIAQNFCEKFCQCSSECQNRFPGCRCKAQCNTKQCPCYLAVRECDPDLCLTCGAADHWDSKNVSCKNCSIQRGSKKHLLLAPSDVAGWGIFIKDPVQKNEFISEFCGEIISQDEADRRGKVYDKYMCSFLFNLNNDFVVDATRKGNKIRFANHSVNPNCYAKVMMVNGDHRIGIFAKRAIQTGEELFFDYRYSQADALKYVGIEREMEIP

Papp at 20 µM [3]: 1.06 ×10⁻⁶ cm/s
IC50 (SU-DHL-2): > 3 µM
half-life [6]: 20.2 min
IC50 (KARPAS-422 [8]): 0.294 µM
Structure (SMILES): CCN(c1cc(-c2ccc(CN3CCOCC3)cc2)cc(C(=O)NCc2c(C)cc(C)[nH]c2=O)c1C)C1CCOCC1 [TAZEMETOSTAT]
IC50 [1]: > 3 µM
IC50 (HT): > 3 µM
inhibition (KARPAS-422 [2]): Active
inhibition (Pfeiffer [4]): Active
inhibition (Karpas-1106P; time 6.0 day): Active
IC50 (Pfeiffer [5]): 0.034 µM
IC50 (OPM-2): > 3 µM
IC50 (DB): > 3 µM
IC50 (U2932): > 3 µM
Activity (Pfeiffer [7]): inactive
IC50 (WSUDLCL2): > 3 µM
inhibition (SU-DHL10): Active
inhibition (RL; time 6.0 day): Active

Structure (SMILES): C=CC(=O)NCc1cc(C(=O)NCc2c(CCC)cc(C)[nH]c2=O)c(C)c(N(CC)C2CCOCC2)c1
IC50 [9]: 0.004 µM
IC50 (Pfeiffer [5]): 1.35 µM
IC50 (KARPAS-422 [8]): > 3 µM

Structure (SMILES): C=CC(=O)Nc1cc(C(=O)NCc2c(C)cc(C)[nH]c2=O)c(C)c(N(CC)C2CCOCC2)c1
IC50 [9]: 0.01 µM
Papp at 20 µM [3]: 0.045 ×10⁻⁶ cm/s
IC50 (Pfeiffer [5]): 0.974 µM
half-life [6]: 9.4 min
IC50 (KARPAS-422 [8]): > 3 µM

Structure (SMILES): CCN(c1cc(NC(=O)/C=C/CN2CCOCC2)cc(C(=O)NCc2c(C)cc(C)[nH]c2=O)c1C)C1CCOCC1
IC50 [9]: 0.021 µM

Structure (SMILES): C=CS(=O)(=O)Nc1cc(C(=O)NCc2c(C)cc(C)[nH]c2=O)c(C)c(N(CC)C2CCOCC2)c1
IC50 [9]: 0.173 µM

Structure (SMILES): C=C(C)C(=O)Nc1cc(C(=O)NCc2c(C)cc(C)[nH]c2=O)c(C)c(N(CC)C2CCOCC2)c1
IC50 [9]: 0.038 µM

Structure (SMILES): CCC(=O)NCc1cc(C(=O)NCc2c(C)cc(C)[nH]c2=O)c(C)c(N(CC)C2CCOCC2)c1
IC50 [9]: 0.137 µM
IC50 (Pfeiffer [5]): > 3 µM
IC50 (KARPAS-422 [8]): > 3 µM

Structure (SMILES): C=CC(=O)NCc1cc(C(=O)NCc2c(C)cc(C)[nH]c2=O)c(C)c(N(CC)C2CCOCC2)c1
IC50 [9]: 0.039 µM
IC50 (Pfeiffer [5]): 0.194 µM
half-life [6]: 24 min
IC50 (KARPAS-422 [8]): 0.542 µM

Structure (SMILES): C=CC(=O)N(C)c1cc(C(=O)NCc2c(C)cc(C)[nH]c2=O)c(C)c(N(CC)C2CCOCC2)c1
IC50 [9]: 0.035 µM
Papp at 20 µM [3]: 0.054 ×10⁻⁶ cm/s
IC50 (Pfeiffer [5]): 0.195 µM
half-life [6]: 12.7 min
IC50 (KARPAS-422 [8]): 0.587 µM

Structure (SMILES): CCN(c1cc(NC(=O)/C=C/CN(C)C)cc(C(=O)NCc2c(C)cc(C)[nH]c2=O)c1C)C1CCOCC1
IC50 [9]: 0.036 µM

Structure (SMILES): CC#CC(=O)Nc1cc(C(=O)NCc2c(C)cc(C)[nH]c2=O)c(C)c(N(CC)C2CCOCC2)c1
IC50 [9]: 0.011 µM

Structure (SMILES): CC[C@H](C)n1cc(C)c2c(C(=O)NCc3c(C)cc(C)[nH]c3=O)cc(-c3ccc(N4CCNCC4)nc3)cc21
Activity (Pfeiffer [7]): inactive

Structure (SMILES): CCC(=O)N(C)c1cc(C(=O)NCc2c(C)cc(C)[nH]c2=O)c(C)c(N(CC)C2CCOCC2)c1
IC50 [9]: 0.05 µM
IC50 (Pfeiffer [5]): 2.53 µM
IC50 (KARPAS-422 [8]): > 3 µM

Structure (SMILES): CCC(=O)Nc1cc(C(=O)NCc2c(C)cc(C)[nH]c2=O)c(C)c(N(CC)C2CCOCC2)c1
IC50 [9]: 0.038 µM
IC50 (Pfeiffer [5]): 1.95 µM
IC50 (KARPAS-422 [8]): > 3 µM

Structure (SMILES): C=CC(=O)NCc1cc(C(=O)NCc2c(OC)cc(C)[nH]c2=O)c(C)c(N(CC)C2CCOCC2)c1
IC50 [9]: 0.009 µM
IC50 (Pfeiffer [5]): 0.314 µM
half-life [6]: 35.3 min
IC50 (KARPAS-422 [8]): 1.45 µM

Structure (SMILES): C/C=C/C(=O)Nc1cc(C(=O)NCc2c(C)cc(C)[nH]c2=O)c(C)c(N(CC)C2CCOCC2)c1
IC50 [9]: 0.021 µM

Structure (SMILES): CCC(=O)NCc1cc(C(=O)NCc2c(SC)cc(C)[nH]c2=O)c(C)c(N(CC)C2CCOCC2)c1
IC50 [1]: > 3 µM
IC50 (HT): > 3 µM
IC50 [9]: 0.134 µM
inhibition (KARPAS-422 [2]): Active
inhibition (Pfeiffer [4]): Active
IC50 (Karpas-1106P; 144 h): > 3 µM
IC50 (Pfeiffer [5]): 0.147 µM
IC50 (SU-DHL-2): > 3 µM
IC50 (OPM-2): > 3 µM
IC50 (DB): > 3 µM
IC50 (U2932): > 3 µM
Activity (Pfeiffer [7]): inactive
IC50 (WSUDLCL2): > 3 µM
inhibition (SU-DHL10): Active
IC50 (RL; 144 h): > 3 µM
IC50 (KARPAS-422 [8]): 0.708 µM
